Test results from PMC10004187 (Molecules, 2023).

What was measured:
[1] = molecular target: T1, butyrylcholinesterase (BuChE) (Homo sapiens, UniProt P06276); details: for Butyrylcholinesterase (BuChE) Inhibition %Inhibition: given for compounds with <50% inhibition, test concentration not given
[2] = test system: Vero cell lines (normal kidney epithelial cells); assay: SRB cytotoxicity assay against Vero cell line; format: cell-based; details: initial screening
Protocol: To investigate the cytotoxicity of potent compounds (8a, 8c, 8g, and 9i), an SRB assay was performed against Vero cell lines (normal kidney epithelial cells). The total protein generated when cells were treated with putative anticancer drugs was assessed using a very precise […] technique. […] It can readily connect with cells that have been fixed with trichloroacetic acid (TCA). A bright color is produced by the SRB dye when it binds solely to intracellular proteins, and the color is proportional to the quantity of protein present in the cell.

[3] = molecular target: T1, butyrylcholinesterase (BuChE); assay: biochemical

T1 sequence (P06276 29-602): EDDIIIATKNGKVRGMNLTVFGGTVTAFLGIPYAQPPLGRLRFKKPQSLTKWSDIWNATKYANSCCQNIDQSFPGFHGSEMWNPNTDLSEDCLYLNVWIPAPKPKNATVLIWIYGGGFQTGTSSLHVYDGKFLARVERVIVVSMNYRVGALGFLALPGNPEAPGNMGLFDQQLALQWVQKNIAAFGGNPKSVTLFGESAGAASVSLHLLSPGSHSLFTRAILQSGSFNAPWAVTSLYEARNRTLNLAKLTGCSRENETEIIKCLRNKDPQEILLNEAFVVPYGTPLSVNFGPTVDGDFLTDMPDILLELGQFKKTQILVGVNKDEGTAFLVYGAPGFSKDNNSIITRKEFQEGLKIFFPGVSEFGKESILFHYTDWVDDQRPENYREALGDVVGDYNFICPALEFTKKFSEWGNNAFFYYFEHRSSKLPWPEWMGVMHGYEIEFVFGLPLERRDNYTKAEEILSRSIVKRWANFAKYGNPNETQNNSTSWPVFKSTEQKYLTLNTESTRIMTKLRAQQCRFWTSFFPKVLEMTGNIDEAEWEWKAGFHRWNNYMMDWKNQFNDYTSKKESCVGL

COc1ccc(C(=O)NN=Cc2cc3cccc(C)c3nc2N2CCCCC2)cc1 [Compound 9j, 4-Methoxy-N′-((8-methyl-2-(piperidin-1-yl)quinolin-3-yl)methylene)benzohydrazide]
Butyrylcholinesterase (BuChE) Inhibition %Inhibition [1]: 38%

COc1cccc(C(=O)NN=Cc2cc3cccc(C)c3nc2N2CCCCC2)c1 [Compound 9i, 3-Methoxy-N′-((8-methyl-2-(piperidin-1-yl)quinolin-3-yl)methylene)benzohydrazide]
inhibition of Vero cells (toxicity towards normal kidney cells) [2]: less than 22% | Butyrylcholinesterase (BuChE) Inhibition %Inhibition [1]: 27%

COc1ccccc1C(=O)NN=Cc1cc2cccc(C)c2nc1N1CCCCC1 [Compound 9h, 2-Methoxy-N′-((8-methyl-2-(piperidin-1-yl)quinolin-3-yl)methylene)benzohydrazide]
Butyrylcholinesterase (BuChE) Inhibition %Inhibition [1]: 33%

Cc1ccc2nc(N3CCCCC3)c(C=NNC(=O)c3ccc(Cl)cc3Cl)cc2c1 [Compound 8i, 2,4-Dichloro-N′-((6-methyl-2-(piperidin-1-yl)quinolin-3-yl)methylene)benzohydrazide]
Butyrylcholinesterase (BuChE) Inhibition %Inhibition [1]: 39%

COc1ccccc1C(=O)NN=Cc1cc2cc(C)ccc2nc1N1CCCCC1 [Compound 8j, 2-Methoxy-N′-((6-methyl-2-(piperidin-1-yl)quinolin-3-yl)methylene)benzohydrazide]
Butyrylcholinesterase (BuChE) Inhibition %Inhibition [1]: 30%

Cc1ccc2nc(N3CCCCC3)c(C=NNC(=O)c3ccc([N+](=O)[O-])cc3)cc2c1 [Compound 8c, N′-((6-methyl-2-(piperidin-1-yl)quinolin-3-yl)methylene)-4-nitrobenzohydrazide]
inhibition of Vero cells (toxicity towards normal kidney cells) [2]: less than 22% | IC50 [3]: 1.74 ± 0.03 µM

Cc1ccc2nc(N3CCCCC3)c(C=NNC(=O)c3ccc(N)cc3)cc2c1 [Compound 8e, 4-Amino-N′-((6-methyl-2-(piperidin-1-yl)quinolin-3-yl)methylene)benzohydrazide]
Butyrylcholinesterase (BuChE) Inhibition %Inhibition [1]: 23%

Cc1cccc2cc(C=NNC(=O)c3ccc(Cl)cc3)c(N3CCCCC3)nc12 [Compound 9f, 4-Chloro-N′-((8-methyl-2-(piperidin-1-yl)quinolin-3-yl)methylene)benzohydrazide]
Butyrylcholinesterase (BuChE) Inhibition %Inhibition [1]: 36%

Cc1cccc2cc(C=NNC(=O)c3cccc([N+](=O)[O-])c3)c(N3CCCCC3)nc12 [Compound 9b, N′-((8-methyl-2-(piperidin-1-yl)quinolin-3-yl)methylene)-3-nitrobenzohydrazide]
Butyrylcholinesterase (BuChE) Inhibition %Inhibition [1]: 27%

Cc1ccc2nc(N3CCCCC3)c(C=NNC(=O)c3ccccc3Cl)cc2c1 [Compound 8f, 2-Chloro-N′-((6-methyl-2-(piperidin-1-yl)quinolin-3-yl)methylene)benzohydrazide]
Butyrylcholinesterase (BuChE) Inhibition %Inhibition [1]: 15%

Cc1cccc2cc(C=NNC(=O)c3ccccc3Cl)c(N3CCCCC3)nc12 [Compound 9d, 2-Chloro-N′-((8-methyl-2-(piperidin-1-yl)quinolin-3-yl)methylene)benzohydrazide]
Butyrylcholinesterase (BuChE) Inhibition %Inhibition [1]: 38%

Cc1cccc2cc(C=NNC(=O)c3ccc([N+](=O)[O-])cc3)c(N3CCCCC3)nc12 [Compound 9c, N′-((8-methyl-2-(piperidin-1-yl)quinolin-3-yl)methylene)-4-nitrobenzohydrazide]
Butyrylcholinesterase (BuChE) Inhibition %Inhibition [1]: 32%

Cc1cccc2cc(C=NNC(=O)c3ccccc3)c(N3CCCCC3)nc12 [Compound 9a, N′-((8-methyl-2-(piperidin-1-yl)quinolin-3-yl)methylene)benzohydrazide]
Butyrylcholinesterase (BuChE) Inhibition %Inhibition [1]: 32%

Cc1ccc2nc(N3CCCCC3)c(C=NNC(=O)c3cccc(Cl)c3)cc2c1 [Compound 8g, 3-Chloro-N′-((6-methyl-2-(piperidin-1-yl)quinolin-3-yl)methylene)benzohydrazide]
inhibition of Vero cells (toxicity towards normal kidney cells) [2]: less than 22% | IC50 [3]: 1.31 ± 0.05 µM

Cc1ccc2nc(N3CCCCC3)c(C=NNC(=O)c3ccccc3O)cc2c1 [Compound 8m, 2-Hydroxy-N′-((6-methyl-2-(piperidin-1-yl)quinolin-3-yl)methylene)benzohydrazide]
Butyrylcholinesterase (BuChE) Inhibition %Inhibition [1]: 13%

COc1cccc(C(=O)NN=Cc2cc3cc(C)ccc3nc2N2CCCCC2)c1 [Compound 8k, 3-Methoxy-N′-((6-methyl-2-(piperidin-1-yl)quinolin-3-yl)methylene)benzohydrazide]
Butyrylcholinesterase (BuChE) Inhibition %Inhibition [1]: 28%

Cc1ccc2nc(N3CCCCC3)c(C=NNC(=O)c3ccccc3N)cc2c1 [Compound 8d, 2-Amino-N′-((6-methyl-2-(piperidin-1-yl)quinolin-3-yl)methylene)benzohydrazide]
Butyrylcholinesterase (BuChE) Inhibition %Inhibition [1]: 21%

Cc1ccc2nc(N3CCCCC3)c(C=NNC(=O)c3cccc([N+](=O)[O-])c3)cc2c1 [Compound 8b, N′-((6-methyl-2-(piperidin-1-yl)quinolin-3-yl)methylene)-3-nitrobenzohydrazide]
BuChE inhibition ability, fold reduction relative to 8g ([1]; Cl exchanged for NO2, vs lead 8g): 3 folds | IC50 [3]: 4.71 ± 0.45 µM

Cc1cccc2cc(C=NNC(=O)c3ccc(Cl)cc3Cl)c(N3CCCCC3)nc12 [Compound 9g, 2,4-Dichloro-N′-((8-methyl-2-(piperidin-1-yl)quinolin-3-yl)methylene)benzohydrazide]
Butyrylcholinesterase (BuChE) Inhibition %Inhibition [1]: 32%

Cc1ccc2nc(N3CCCCC3)c(C=NNC(=O)c3ccccc3)cc2c1 [Compound 8a, N′-((6-methyl-2-(piperidin-1-yl)quinolin-3-yl)methylene)benzohydrazide]
inhibition of Vero cells (toxicity towards normal kidney cells) [2]: less than 22% | IC50 [3]: 4.64 ± 0.43 µM

Cc1cccc2cc(C=NNC(=O)c3cccc(Cl)c3)c(N3CCCCC3)nc12 [Compound 9e, 3-Chloro-N′-((8-methyl-2-(piperidin-1-yl)quinolin-3-yl)methylene)benzohydrazide]
Butyrylcholinesterase (BuChE) Inhibition %Inhibition [1]: 40%

COc1ccc(C(=O)NN=Cc2cc3cc(C)ccc3nc2N2CCCCC2)cc1 [Compound 8l, 4-Methoxy-N′-((6-methyl-2-(piperidin-1-yl)quinolin-3-yl)methylene)benzohydrazide]
Butyrylcholinesterase (BuChE) Inhibition %Inhibition [1]: 15%

Cc1ccc2nc(N3CCCCC3)c(C=NNC(=O)c3ccc(Cl)cc3)cc2c1 [Compound 8h, 4-Chloro-N′-((6-methyl-2-(piperidin-1-yl)quinolin-3-yl)methylene)benzohydrazide]
Butyrylcholinesterase (BuChE) Inhibition %Inhibition [1]: 34%
